Reference: patent US11028087B2, “2,6-disubstituted-9-cyclopentyl-9H-purines, use thereof as medicaments, and pharmaceutical compositions” (UNIVERZITA PALACKEHO V OLOMOUCI, priority 2017, dated 2021)

How the values were obtained:
[1] = test system: Kasumi-1 (acute myeloid leukemia, KIT mutation Asn822Lys); assay: Calcein AM cytotoxicity assay; format: cell-based; settings: Homo sapiens, 72 h; Kasumi-1; Calcein AM, three days; read-out: EC50 values (μM) Kasumi-1
Excerpt: (§1) Cytotoxicity of the compounds is the major property determining their anticancer effect in vivo. One of the parameters used, as the basis for cytotoxicity assays, is the integrity of cytoplasmic membrane of viable cells. For example, a microtiter assay, which uses acetomethoxy derivate of calcein (Calcein AM), is widely used for evaluation of cell proliferation and cytotoxicity. This assay is used in drug screening programs and in chemosensitivity testing. Intracellular esterases of viable cells convert calcein AM to green-fluorescent calcein of which signal corresponds to the number of viable cells in the culture.
(§2) We have been using the following cell lines: MV4-11 (acute myeloid leukemia, FLT3-ITD positive), MOLM-13 (acute myeloid leukemia, FLT3-ITD positive), THP-1 (acute myeloid leukemia, wt FLT3), U937 (monocytic leukemia, wt FLT3), EOL-1 (eosinophilic leukaemia, carrying the fusion FIP1L1-PDGFRA), H1703 (non-small cell lung carcinoma, PDGFRA amplification). They were maintained in RPMI-1640 supplemented with 10% fetal bovine serum, penicillin (100 U/ml) and streptomycin (100 μg/ml). Kasumi-1 (acute myeloid leukemia, KIT mutation Asn822Lys) cells were cultivated in RPMI-1640 supplemented with 15% fetal bovine serum, penicillin (100 U/ml) and streptomycin (100 μg/ml). K562 and MCF-7 cell lines were maintained in DMEM supplemented with 10% fetal bovine serum, penicilin (100 U/ml) and streptomycin (100 μg/ml). All cell lines were cultivated at 37° C. in 5% CO2. For cytotoxicity assays, cells were seeded in appropriate densities into 96 well plates and the next day tested compounds were added at various concentrations in triplicates. Three days after drug addition, Calcein AM solution (final concentration 1 μg/ml; Thermo Scientific, USA) was added into each well and incubated for 1 h. After this incubation period, fluorescence of the live cells was measured at 485 nm/538 nm (ex/em) with a Fluoroskan Ascent microplate reader (Labsystems).

[2] = test system: K562; assay: Calcein AM cytotoxicity assay; format: cell-based; settings: Homo sapiens, 72 h; K562; Calcein AM, three days; read-out: EC50 values (μM) K562
Excerpt: as §1
as §2, with “They were maintained in RPMI-1640 supplemented with 10% fetal bovine serum, penicillin (100 U/ml) and streptomycin (100 μg/ml). Kasumi-1 (acute myeloid leukemia, KIT mutation Asn822Lys) cells were cultivated in RPMI-1640 supplemented with 15% fetal bovine serum, penicillin (100 U/ml) and streptomycin (100 μg/ml).” left out, “h.” for “h. After this incubation period, fluorescence of the live cells was measured at 485 nm/538 nm (ex/em) with a Fluoroskan Ascent microplate reader (Labsystems).”

[3] = test system: EOL-1 (eosinophilic leukaemia, carrying the fusion FIP1L1-PDGFRA); assay: Calcein AM cytotoxicity assay; format: cell-based; settings: Homo sapiens, EOL1, 72 h; EOL-1; Calcein AM, three days; read-out: EC50 values (μM) EOL-1
Excerpt: as §1
as §2, with “They were maintained in RPMI-1640 supplemented with 10% fetal bovine serum, penicillin (100 U/ml) and streptomycin (100 μg/ml). Kasumi-1 (acute myeloid leukemia, KIT mutation Asn822Lys) cells were cultivated in RPMI-1640 supplemented with 15% fetal bovine serum, penicillin (100 U/ml) and streptomycin (100 μg/ml).” left out, “h.” for “h. After this incubation period, fluorescence of the live cells was measured at 485 nm/538 nm (ex/em) with a Fluoroskan Ascent microplate reader (Labsystems).”

[4] = test system: MCF-7; assay: Calcein AM cytotoxicity assay; format: cell-based; settings: Homo sapiens, MCF7, 72 h; MCF-7; Calcein AM, three days; read-out: EC50 values (μM) MCF-7
Excerpt: as §1
as §2, with “They were maintained in RPMI-1640 supplemented with 10% fetal bovine serum, penicillin (100 U/ml) and streptomycin (100 μg/ml). Kasumi-1 (acute myeloid leukemia, KIT mutation Asn822Lys) cells were cultivated in RPMI-1640 supplemented with 15% fetal bovine serum, penicillin (100 U/ml) and streptomycin (100 μg/ml).” left out, “h.” for “h. After this incubation period, fluorescence of the live cells was measured at 485 nm/538 nm (ex/em) with a Fluoroskan Ascent microplate reader (Labsystems).”

[5] = test system: U937 (monocytic leukemia, wt FLT3); assay: Calcein AM cytotoxicity assay; format: cell-based; settings: Homo sapiens, U-937, 72 h; U937; Calcein AM, three days; read-out: EC50 values (μM) U937
Excerpt: as §1
as §2, with “They were maintained in RPMI-1640 supplemented with 10% fetal bovine serum, penicillin (100 U/ml) and streptomycin (100 μg/ml). Kasumi-1 (acute myeloid leukemia, KIT mutation Asn822Lys) cells were cultivated in RPMI-1640 supplemented with 15% fetal bovine serum, penicillin (100 U/ml) and streptomycin (100 μg/ml).” left out, “h.” for “h. After this incubation period, fluorescence of the live cells was measured at 485 nm/538 nm (ex/em) with a Fluoroskan Ascent microplate reader (Labsystems).”

[6] = test system: MV4-11 (acute myeloid leukemia, FLT3-ITD positive); assay: Calcein AM cytotoxicity assay; format: cell-based; settings: Homo sapiens, 72 h; MV4-11; Calcein AM, three days after drug addition; read-out: EC50 values (μM) MV4-11
Excerpt: as §1
as §2, with “They were maintained in RPMI-1640 supplemented with 10% fetal bovine serum, penicillin (100 U/ml) and streptomycin (100 μg/ml). Kasumi-1 (acute myeloid leukemia, KIT mutation Asn822Lys) cells were cultivated in RPMI-1640 supplemented with 15% fetal bovine serum, penicillin (100 U/ml) and streptomycin (100 μg/ml).” left out, “h.” for “h. After this incubation period, fluorescence of the live cells was measured at 485 nm/538 nm (ex/em) with a Fluoroskan Ascent microplate reader (Labsystems).”

[7] = test system: THP-1 (acute myeloid leukemia, wt FLT3); assay: Calcein AM cytotoxicity assay; format: cell-based; settings: Homo sapiens, 72 h; THP-1; Calcein AM, three days; read-out: EC50 values (μM) THP-1
Excerpt: as §1
as §2, with “They were maintained in RPMI-1640 supplemented with 10% fetal bovine serum, penicillin (100 U/ml) and streptomycin (100 μg/ml). Kasumi-1 (acute myeloid leukemia, KIT mutation Asn822Lys) cells were cultivated in RPMI-1640 supplemented with 15% fetal bovine serum, penicillin (100 U/ml) and streptomycin (100 μg/ml).” left out, “h.” for “h. After this incubation period, fluorescence of the live cells was measured at 485 nm/538 nm (ex/em) with a Fluoroskan Ascent microplate reader (Labsystems).”

[8] = test system: MOLM-13 (acute myeloid leukemia, FLT3-ITD positive); assay: Calcein AM cytotoxicity assay; format: cell-based; settings: Homo sapiens, 72 h; MOLM-13; Calcein AM, three days; read-out: EC50 values (μM) MOLM-13
Excerpt: as §1
as §2, with “They were maintained in RPMI-1640 supplemented with 10% fetal bovine serum, penicillin (100 U/ml) and streptomycin (100 μg/ml). Kasumi-1 (acute myeloid leukemia, KIT mutation Asn822Lys) cells were cultivated in RPMI-1640 supplemented with 15% fetal bovine serum, penicillin (100 U/ml) and streptomycin (100 μg/ml).” left out, “h.” for “h. After this incubation period, fluorescence of the live cells was measured at 485 nm/538 nm (ex/em) with a Fluoroskan Ascent microplate reader (Labsystems).”

[9] = biological target: T1, CDK2/Cyclin E (Homo sapiens, UniProt P24941); assay: Kinase inhibition assay with [γ-33P]ATP; format: biochemical; settings: histone H1, 15 μM ATP; read-out: IC50 values (μM) CDK2
T1 construct: made in house; host or cells: Sf9 insect cells, baculoviral infection
Procedure: (§3) CDK1/Cyclin B and CDK2/Cyclin E kinases were produced in Sf9 insect cells via baculoviral infection and purified on a NiNTA column (Qiagen). CDK5/p35 and CDK7Cyclin H/MAT1, FLT3 WT, FLT3-ITD and FLT3 D835 were purchased from ProQinase GmbH. The kinase reactions were assayed with 1 mg/mL histone H1 (for CDK1, CDK2 and CDK5), (YSPTSPS)2KK peptide (for CDK7) or AGLT substrate (for FLT3) in the presence of 15/15/0.15/1.5/1 μM ATP (for CDK1/CDK2/CDK5/CDK7/FLT3), 0.05 μCi [γ-^33P]ATP and of the test compound in a final volume of 10 μL, all in a reaction buffer (60 mM HEPES-NaOH, pH 7.5, 3 mM MgCl2, 3 mM MnCl2, 3 μM Na-orthovanadate, 1.2 mM DTT, 2.5 μg/50 μl PEG20,000). The reactions were stopped by adding 5 μL of 3% aq H3PO4. Aliquots were spotted onto P-81 phosphocellulose (Whatman), washed 3× with 0.5% aq H3PO4 and finally air-dried.

[10] = biological target: T2, CDK5/p35 (Homo sapiens, UniProt Q00535); assay: Kinase inhibition assay with [γ-33P]ATP; format: biochemical; settings: histone H1, 0.15 μM ATP
T2 construct: purchased ProQinase GmbH
T2 sequence (Q00535 whole entry): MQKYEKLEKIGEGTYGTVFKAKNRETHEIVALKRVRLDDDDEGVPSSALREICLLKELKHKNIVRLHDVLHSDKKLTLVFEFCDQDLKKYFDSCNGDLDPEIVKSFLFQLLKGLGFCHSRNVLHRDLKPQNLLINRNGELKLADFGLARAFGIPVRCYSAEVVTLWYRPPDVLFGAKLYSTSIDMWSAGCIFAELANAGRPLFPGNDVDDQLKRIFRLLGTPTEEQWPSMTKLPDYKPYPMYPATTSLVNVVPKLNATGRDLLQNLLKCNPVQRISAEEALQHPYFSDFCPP
T2 sequence (Q15078 whole entry partner): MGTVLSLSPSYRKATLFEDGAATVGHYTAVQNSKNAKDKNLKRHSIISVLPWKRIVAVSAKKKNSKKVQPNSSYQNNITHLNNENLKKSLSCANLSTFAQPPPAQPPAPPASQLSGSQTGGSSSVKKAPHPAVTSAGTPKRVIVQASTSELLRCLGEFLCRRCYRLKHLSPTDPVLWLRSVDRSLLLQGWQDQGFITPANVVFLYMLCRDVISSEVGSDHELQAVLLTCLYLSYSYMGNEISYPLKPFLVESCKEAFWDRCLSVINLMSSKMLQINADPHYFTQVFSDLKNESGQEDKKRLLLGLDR
Procedure: as §3

[11] = biological target: T3, CDK1/Cyclin B (Homo sapiens, UniProt P06493); assay: Kinase inhibition assay with [γ-33P]ATP; format: biochemical; settings: histone H1, 15 μM ATP
T3 construct: made in house; host or cells: Sf9 insect cells, baculoviral infection
T3 sequence (P06493 whole entry, species assumed): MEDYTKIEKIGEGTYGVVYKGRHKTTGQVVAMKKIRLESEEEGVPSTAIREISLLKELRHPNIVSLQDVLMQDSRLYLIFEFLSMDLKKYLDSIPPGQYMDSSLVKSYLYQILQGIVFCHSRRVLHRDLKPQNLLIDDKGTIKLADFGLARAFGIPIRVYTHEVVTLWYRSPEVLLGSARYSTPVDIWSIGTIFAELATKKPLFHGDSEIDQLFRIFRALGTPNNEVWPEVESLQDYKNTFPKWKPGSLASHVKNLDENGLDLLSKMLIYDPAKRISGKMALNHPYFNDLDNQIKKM
T3 sequence (P14635 whole entry partner, species assumed): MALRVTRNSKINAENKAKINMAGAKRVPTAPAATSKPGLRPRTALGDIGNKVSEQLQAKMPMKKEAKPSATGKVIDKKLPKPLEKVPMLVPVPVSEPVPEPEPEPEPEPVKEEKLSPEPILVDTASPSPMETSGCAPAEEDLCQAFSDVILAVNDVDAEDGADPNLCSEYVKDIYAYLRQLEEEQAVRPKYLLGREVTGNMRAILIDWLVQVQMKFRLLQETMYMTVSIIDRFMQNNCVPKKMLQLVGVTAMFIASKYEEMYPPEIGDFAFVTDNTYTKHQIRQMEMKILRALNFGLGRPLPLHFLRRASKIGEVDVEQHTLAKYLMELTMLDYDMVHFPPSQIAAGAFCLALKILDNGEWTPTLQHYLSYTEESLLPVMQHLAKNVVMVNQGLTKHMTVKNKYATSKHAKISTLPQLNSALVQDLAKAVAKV
Procedure: as §3

[12] = biological target: T4, FLT3 WT (Homo sapiens, UniProt P36888); assay: Kinase inhibition assay with [γ-33P]ATP; format: biochemical; settings: AGLT substrate, 1 μM ATP
T4 construct: purchased ProQinase GmbH
T4 sequence (P36888 27-993): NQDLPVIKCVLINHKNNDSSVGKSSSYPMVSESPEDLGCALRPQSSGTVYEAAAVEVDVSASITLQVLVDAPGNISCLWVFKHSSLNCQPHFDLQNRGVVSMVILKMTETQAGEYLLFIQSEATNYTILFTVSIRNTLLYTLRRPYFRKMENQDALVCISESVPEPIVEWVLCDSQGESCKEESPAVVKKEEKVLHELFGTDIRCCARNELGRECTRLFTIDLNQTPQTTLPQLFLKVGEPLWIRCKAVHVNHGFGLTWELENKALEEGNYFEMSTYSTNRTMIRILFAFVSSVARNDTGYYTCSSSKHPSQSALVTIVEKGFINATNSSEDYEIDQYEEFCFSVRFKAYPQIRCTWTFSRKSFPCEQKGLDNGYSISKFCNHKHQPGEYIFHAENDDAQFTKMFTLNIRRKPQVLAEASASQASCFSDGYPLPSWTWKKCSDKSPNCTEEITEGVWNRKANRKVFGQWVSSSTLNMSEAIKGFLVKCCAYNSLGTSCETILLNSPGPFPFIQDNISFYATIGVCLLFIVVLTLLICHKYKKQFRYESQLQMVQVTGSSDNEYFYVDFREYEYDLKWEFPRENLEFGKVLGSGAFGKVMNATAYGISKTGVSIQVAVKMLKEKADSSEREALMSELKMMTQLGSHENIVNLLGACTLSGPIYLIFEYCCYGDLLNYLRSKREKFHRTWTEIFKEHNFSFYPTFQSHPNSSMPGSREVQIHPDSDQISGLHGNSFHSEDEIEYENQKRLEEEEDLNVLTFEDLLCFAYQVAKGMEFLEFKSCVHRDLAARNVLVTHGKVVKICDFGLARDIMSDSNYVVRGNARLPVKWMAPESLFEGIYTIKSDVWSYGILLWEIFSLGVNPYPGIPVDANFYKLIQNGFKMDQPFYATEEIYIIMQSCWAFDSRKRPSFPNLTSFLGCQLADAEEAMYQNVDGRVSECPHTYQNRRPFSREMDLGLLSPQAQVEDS
Procedure: as §3

IC50 [9]: 2.04 µM | IC50 [10]: 3.71 µM | IC50 [11]: 6.05 µM | IC50 [12]: 0.025 µM
SMILES: NCCCCCNc1nc(Nc2ccc(CN3CCOCC3)cc2)c2ncn(C3CCCC3)c2n1 [Compound 267]
EC50 [1]: 1.25 µM | EC50 [2]: 1.79 µM | EC50 [3]: 0.071 µM | EC50 [4]: 2.27 µM | EC50 [5]: 3.63 µM | EC50 [6]: 0.032 µM | EC50 [7]: 2.42 µM | EC50 [8]: 0.02 µM
